Like-named read-outs stand apart in the source and are kept apart here. Where a SMILES comes first, the peptide text is derived from it. [ ]: non-standard residue; d: D form. βAla = NCCC(=O)O
Experiments:
[1] = PAMPA-BBB literature value, cited from earlier work
Description: Supplement Table3.XLSX, sheet "Primer list" | column: Pe,lit

in vitro = settings: for Papp / Papp at 18 h: pH 7.4
Protocol: A 96-well acceptor microplate (PTFE, Millipore) was prepared by filled each well with 300 μL of PBS/DMSO (95:5, pH = 7.4), while the donor microplate artificial membrane (PVDF membrane, pore size […], Millipore) was carefully coated with 5 μL of PBL dissolved in dodecane ([…]). Each compound was dissolved in DMSO, diluted with PBS/DMSO (95:5, pH = 7.4) to a final concentration of 40–100 μM in the donor well, filtered with a Millex filter, and applied to the donor microplate wells (200 μL). Next, the donor plate was carefully placed on top of the acceptor plate, thereby bringing the artificial membrane in contact with the buffer solution underneath. The donor well was covered with a lid, and the whole system was left undisturbed overnight (18 h) at 25°C in a container sealed with damp paper towels to prevent evaporation. After incubation, the donor microplate was carefully removed, and UV-vis spectroscopy was used to determine the amounts of the tested compounds in the acceptor and donor microplate wells, respectively. Each sample was evaluated at five wavelengths in four wells during three separate runs; accordingly, all data are presented as mean values with relevant standard deviation. The permeability values (Pe,exp, cm/s) were calculated according to the following expression: Pe,exp = {−VdVa/[(Vd + Va)At]ln–1—da/deq}, in which Vd and Va represent the volumes of the donor and the acceptor wells, respectively, A is the surface of the artificial membrane, t is the permeation time, whilst da and deq are the absorbance measured in the acceptor well and the theoretical equilibrium absorbance value, respectively. After the PAMPA-BBB test for all compounds was completed, the integrity of the lipid membrane was evaluated based on the transport of Lucifer Yellow (Sigma-Aldrich)—a fluorescent molecule with very limited membrane permeability rejected by a uniform and integral lipid membrane performed according to the Millipore protocol lit. n. PC1545EN00 (https://www.sigmaaldrich.com/technical-documents/protocols/biology/membrane-integrity-test-for-lipid-pampa-artificial-membranes.html).

GAL4 = biological target: T1, GAL4 (Saccharomyces cerevisiae, UniProt P04386); assay: pGAL1::YFP reporter fluorescence (YFP/OD600), BY4741 treated with chemically synthesized peptides (feeding); format: cell-based; settings: 100 µM peptide; 1.00 and 10.00 Gal/Glu ratios; 15.5 h
T1 construct: endogenous in cells; host or cells: S. cerevisiae BY4741 (S288C derivative) with integrated GAL1p-YFP cassette
Protocol: The fluorescence signal of BY4741 pGAL1::YFP reporter strain was measured using a Varioskan LUX multimode microplate reader (ThermoFisher Scientific). Overnight cultures were pelleted, washed twice in water and OD600 normalized for the different cultures. An equal volume of normalized cultures was pipetted in each well of a 96-well plate containing different galactose/glucose (Gal/Glu) ratios. When treating the cells with chemically synthesized G4CP2, a 10 mM stock solution (100% DMSO) was diluted to a working concentration of 100 µM in each well designated for treatment. Fluorescence and OD600 measurements were performed by incubating plates at 28°C, shaking 2 min at 180 rpm, before each measurement.
To test the effects of exogenous administration of chemically synthetized G4CP2 on pGAL1::YFP biosensor, a random-selected control peptide (CP11) was used. […] G4CP2 and CP11 were used at 100 µM to treat BY4741 pGAL1::YFP yeast cells grown in 96-well plates under 1.00 and 10.00 Gal/Glu ratios. YFP/OD600 values were again recorded for 15.5 h (Figure 4D).

[2] = marked a (or a,b; then also Kerns et al., 2004), ref Di et al., 2003
[3] = marked b, ref Kerns et al., 2004

Compound: Cc1nnc2n1-c1ccc(Cl)cc1C(c1ccccc1)=NC2 [Alprazolam]
- Pe,lit [1, 2]: 5.4a 10-6 cm/s
- Papp (in vitro; pig, PAMPA): 5.1 ± 0.4 ×10⁻⁶ cm/s

Compound: CC(C)NCC(O)COc1ccc(CC(N)=O)cc1 (stereo not shown) [Atenolol]
- Papp at 18 h (in vitro; pig, PAMPA): 0.74 ± 0.04 ×10⁻⁶ cm/s

Compound: C/C=C/C[C@@H](C)[C@@H](O)[C@H]1C(=O)N[C@@H](C(C)C)C(=O)N(C)CC(=O)N(C)[C@@H](CC(C)C)C(=O)N[C@@H](C(C)C)C(=O)N(C)[C@@H](CC(C)C)C(=O)N[C@@H](C)C(=O)N[C@H](C)C(=O)N(C)[C@@H](CC(C)C)C(=O)N(C)[C@@H](CC(C)C)C(=O)N(C)[C@@H](C(C)C)C(=O)N1C [CSD]
- Papp (in vitro; PAMPA): 0.93 ± 0.5 ×10⁻⁶ cm/s

Compound: Cn1c(=O)c2c(ncn2C)n(C)c1=O [Caffeine]
- Pe,exp (in vitro; PAMPA-BBB validation, porcine brain lipid in dodecane (20 mg/L), PBS/DMSO 95:5 pH 7.4, 40–100 μM donor, 18 h, 25°C, UV-vis, mean ± SD, four wells, three runs): 1.7 ± 0.2 10-6 cm/s

Compound: CCN(CC)CCCC(C)Nc1ccnc2cc(Cl)ccc12 (stereo not shown) [Chloroquine]
- Papp at 18 h (in vitro; pig, PAMPA): 2.4 ± 0.1 ×10⁻⁶ cm/s

Compound: CN(C)CCCN1c2ccccc2Sc2ccc(Cl)cc21 [Chlorpromazine]
- Papp at 18 h (in vitro; pig, PAMPA): 6.8 ± 0.3 ×10⁻⁶ cm/s

Compound: CN1C(=O)CN=C(c2ccccc2)c2cc(Cl)ccc21 [Diazepam]
- Papp (in vitro; pig, PAMPA): 13.7 ± 0.8 ×10⁻⁶ cm/s

Compound: OCCN(CCO)c1nc(N2CCCCC2)c2nc(N(CCO)CCO)nc(N3CCCCC3)c2n1 [Dipyridamole]
- Pe,lit [1, 3]: 3.5b 10-6 cm/s
- Papp at 18 h (in vitro; pig, PAMPA): 3.8 ± 0.4 ×10⁻⁶ cm/s

Compound: CC(C)[C@H]1C(=O)O[C@H](C(C)C)C(=O)N(C)[C@@H](C(C)C)C(=O)O[C@H](C(C)C)C(=O)N(C)[C@@H](C(C)C)C(=O)O[C@H](C(C)C)C(=O)N1C [EnB]
- Papp at 18 h (in vitro; PAMPA): 8.3 ± 0.7 ×10⁻⁶ cm/s

Compound: CCn1cc(C(=O)O)c(=O)c2cc(F)c(N3CCNCC3)nc21 [Enoxacin]
- Papp at 18 h (in vitro; pig, PAMPA): 0.98 ± 0.3 ×10⁻⁶ cm/s

Compound: CSCC[C@@H]1NC(=O)[C@H](CC(=O)O)NC(=O)[C@H](Cc2ccccc2)NC(=O)[C@H](Cc2ccccc2)NC(=O)[C@H](Cc2ccc(O)cc2)NC(=O)[C@H](CCCNC(=N)N)NC(=O)CCNC(=O)[C@H](Cc2ccc(O)cc2)NC(=O)[C@H](Cc2c[nH]c3ccccc23)NC1=O [G4CP2] (cyclo(DMWY[βAla]RYFF))
- passive permeability classification (in vitro; PAMPA): moderate-to-good
- Papp (in vitro; PAMPA): 3.3 ± 0.4 ×10⁻⁶ cm/s
- YFP fluorescence signal over time (YFP/OD600) (GAL4): strongly attenuated

Compound: CCn1cc(C(=O)O)c(=O)c2cc(F)c(N3CCNC(C)C3)c(F)c21 (stereo not shown) [Lomefloxacin]
- Papp at 18 h (in vitro; pig, PAMPA): 1.4 ± 0.1 ×10⁻⁶ cm/s

Compound: CCn1cc(C(=O)O)c(=O)c2cc(F)c(N3CCNCC3)cc21 [Norfloxacin]
- Papp at 18 h (in vitro; pig, PAMPA): 0.15 ± 0.01 ×10⁻⁶ cm/s

Compound: O=C1Nc2ccc(Cl)cc2C(c2ccccc2)=NC1O (stereo not shown) [Oxazepam]
- Pe,lit [1, 2]: 10a 10-6 cm/s

Compound: CN1C(C(=O)Nc2ccccn2)=C(O)c2ccccc2S1(=O)=O [Piroxicam]
- Pe,lit [1, 2]: 2.5a 10-6 cm/s

Compound: CC(=O)[C@H]1CC[C@H]2[C@@H]3CCC4=CC(=O)CC[C@]4(C)[C@H]3CC[C@]12C [Progesterone]
- Papp at 18 h (in vitro; pig, PAMPA): 10.9 ± 0.7 ×10⁻⁶ cm/s

Compound: COc1cc(Cc2cnc(N)nc2N)cc(OC)c1OC [Trimethoprim]
- Pe,lit [1, 3]: 2.2b 10-6 cm/s
- Papp at 18 h (in vitro; pig, PAMPA): 2.5 ± 0.2 ×10⁻⁶ cm/s

Reference: PMC10014601, “The cyclic peptide G4CP2 enables the modulation of galactose metabolism in yeast by interfering with GAL4 transcriptional activity” (Frontiers in Molecular Biosciences, 2023)
